Data reported in the supplement of paper PMC10307832.

Experiments:
Assay in all cases: relative viability (nuclei count vs DMSO), 5 days (fraction); higher = more cells survive
NCI-H2342 = test system: NCI-H2342
Outline: (§1)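 Relative viability equals treated-well nuclei counts divided by vehicle-well nuclei counts. Counts came from 4× images of lung cancer cell lines grown in 1536-well plates for 5 days after pin-tool dosing on the day after seeding. Dosing used one drug alone or a fixed anchor-drug dose plus five library-drug doses (not always all listed) in √10 steps, and values are medians of duplicate plates.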

NCI-H2405 = test system: NCI-H2405
Outline: as §1

LXF-289 = test system: LXF-289
Outline: as §1

NCI-H322M = test system: NCI-H322M
Outline: as §1

PC-14 = test system: PC-14
Outline: as §1

HCC-827 = test system: HCC-827
Outline: as §1

HCC-78 = test system: HCC-78
Outline: as §1

EKVX = test system: EKVX
Outline: as §1

LK-2 = test system: LK-2
Outline: as §1

NCI-H1975 = test system: NCI-H1975
Outline: as §1

RERF-LC-KJ = test system: RERF-LC-KJ
Outline: as §1

EPLC-272H = test system: EPLC-272H
Outline: as §1

NCI-H23 = test system: NCI-H23
Outline: as §1

NCI-H2126 = test system: NCI-H2126
Outline: as §1

SW 1573 = test system: SW 1573
Outline: as §1

LU99A = test system: LU99A
Outline: as §1

EMC-BAC-2 = test system: EMC-BAC-2
Outline: as §1

NCI-H1666 = test system: NCI-H1666
Outline: as §1

ChaGo-K-1 = test system: ChaGo-K-1
Outline: as §1

SW 900 = test system: SW 900
Outline: as §1

LCLC-103H = test system: LCLC-103H
Outline: as §1

SK-LU-1 = test system: SK-LU-1
Outline: as §1

## CCN(CC)CCCCNc1ncc2cc(-c3cc(OC)cc(OC)c3)c(NC(=O)NC(C)(C)C)nc2n1 + O=C(CCCCCCC(=O)Nc1ccccc1)NO [Vorinostat] (partner 1 µM)
NCI-H2342; first compound 0.01 µM
  relative viability: 0.699
NCI-H2342; first compound 0.03162 µM
  relative viability: 0.716
NCI-H2342; first compound 0.1 µM
  relative viability: 0.796
NCI-H2342; first compound 0.3162 µM
  relative viability: 0.708
NCI-H2342; first compound 1 µM
  relative viability: 0.875
NCI-H2405; first compound 0.01 µM
  relative viability: 0.795
NCI-H2405; first compound 0.03162 µM
  relative viability: 1.03
NCI-H2405; first compound 0.1 µM
  relative viability: 1.08
NCI-H2405; first compound 0.3162 µM
  relative viability: 1.22
NCI-H2405; first compound 1 µM
  relative viability: 0.94
LXF-289; first compound 0.01 µM
  relative viability: 0.768
LXF-289; first compound 0.03162 µM
  relative viability: 0.905
LXF-289; first compound 0.1 µM
  relative viability: 0.829
LXF-289; first compound 0.3162 µM
  relative viability: 0.85
LXF-289; first compound 1 µM
  relative viability: 0.661
NCI-H322M; first compound 0.01 µM
  relative viability: 0.787
NCI-H322M; first compound 0.03162 µM
  relative viability: 0.911
NCI-H322M; first compound 0.1 µM
  relative viability: 0.934
NCI-H322M; first compound 0.3162 µM
  relative viability: 0.966
NCI-H322M; first compound 1 µM
  relative viability: 0.872
PC-14; first compound 0.01 µM
  relative viability: 0.708
PC-14; first compound 0.03162 µM
  relative viability: 0.84
PC-14; first compound 0.1 µM
  relative viability: 0.969
PC-14; first compound 0.3162 µM
  relative viability: 0.881
PC-14; first compound 1 µM
  relative viability: 0.622
HCC-827; first compound 0.01 µM
  relative viability: 0.883
HCC-827; first compound 0.03162 µM
  relative viability: 0.969
HCC-827; first compound 0.1 µM
  relative viability: 0.866
HCC-827; first compound 0.3162 µM
  relative viability: 0.937
HCC-827; first compound 1 µM
  relative viability: 0.674
HCC-78; first compound 0.01 µM
  relative viability: 0.479
HCC-78; first compound 0.03162 µM
  relative viability: 0.487
HCC-78; first compound 0.1 µM
  relative viability: 0.478
HCC-78; first compound 0.3162 µM
  relative viability: 0.456
HCC-78; first compound 1 µM
  relative viability: 0.497
EKVX; first compound 0.01 µM
  relative viability: 0.814
EKVX; first compound 0.03162 µM
  relative viability: 0.734
EKVX; first compound 0.1 µM
  relative viability: 0.731
EKVX; first compound 0.3162 µM
  relative viability: 0.704
EKVX; first compound 1 µM
  relative viability: 0.621
LK-2; first compound 0.01 µM
  relative viability: 0.266
LK-2; first compound 0.03162 µM
  relative viability: 0.213
LK-2; first compound 0.1 µM
  relative viability: 0.2
LK-2; first compound 0.3162 µM
  relative viability: 0.235
LK-2; first compound 1 µM
  relative viability: 0.252
NCI-H1975; first compound 0.01 µM
  relative viability: 0.758
NCI-H1975; first compound 0.03162 µM
  relative viability: 0.756
NCI-H1975; first compound 0.1 µM
  relative viability: 0.853
NCI-H1975; first compound 0.3162 µM
  relative viability: 0.78
NCI-H1975; first compound 1 µM
  relative viability: 0.548
RERF-LC-KJ; first compound 0.01 µM
  relative viability: 0.748
RERF-LC-KJ; first compound 0.03162 µM
  relative viability: 0.71
RERF-LC-KJ; first compound 0.1 µM
  relative viability: 0.764
RERF-LC-KJ; first compound 0.3162 µM
  relative viability: 0.794
RERF-LC-KJ; first compound 1 µM
  relative viability: 0.661
EPLC-272H; first compound 0.01 µM
  relative viability: 0.4
EPLC-272H; first compound 0.03162 µM
  relative viability: 0.537
EPLC-272H; first compound 0.1 µM
  relative viability: 0.277
EPLC-272H; first compound 0.3162 µM
  relative viability: 0.493
EPLC-272H; first compound 1 µM
  relative viability: 0.335
NCI-H23; first compound 0.01 µM
  relative viability: 0.615
NCI-H23; first compound 0.03162 µM
  relative viability: 0.711
NCI-H23; first compound 0.1 µM
  relative viability: 0.715
NCI-H23; first compound 0.3162 µM
  relative viability: 0.467
NCI-H23; first compound 1 µM
  relative viability: 0.581
NCI-H2126; first compound 0.01 µM
  relative viability: 0.771
NCI-H2126; first compound 0.03162 µM
  relative viability: 0.834
NCI-H2126; first compound 0.1 µM
  relative viability: 0.807
NCI-H2126; first compound 0.3162 µM
  relative viability: 0.834
NCI-H2126; first compound 1 µM
  relative viability: 0.822
SW 1573; first compound 0.01 µM
  relative viability: 0.79
SW 1573; first compound 0.03162 µM
  relative viability: 0.959
SW 1573; first compound 0.1 µM
  relative viability: 0.952
SW 1573; first compound 0.3162 µM
  relative viability: 0.707
SW 1573; first compound 1 µM
  relative viability: 0.705
LU99A; first compound 0.01 µM
  relative viability: 0.528
LU99A; first compound 0.03162 µM
  relative viability: 0.601
LU99A; first compound 0.1 µM
  relative viability: 0.541
LU99A; first compound 0.3162 µM
  relative viability: 0.529
LU99A; first compound 1 µM
  relative viability: 0.423
EMC-BAC-2; first compound 0.03162 µM
  relative viability: 0.403
EMC-BAC-2; first compound 0.1 µM
  relative viability: 0.428
EMC-BAC-2; first compound 0.3162 µM
  relative viability: 0.758
EMC-BAC-2; first compound 1 µM
  relative viability: 0.444
NCI-H1666; first compound 0.01 µM
  relative viability: 1.13
NCI-H1666; first compound 0.03162 µM
  relative viability: 1.01
NCI-H1666; first compound 0.1 µM
  relative viability: 1.04
NCI-H1666; first compound 0.3162 µM
  relative viability: 1.1
NCI-H1666; first compound 1 µM
  relative viability: 1.05
ChaGo-K-1; first compound 0.01 µM
  relative viability: 0.776
ChaGo-K-1; first compound 0.03162 µM
  relative viability: 0.822
ChaGo-K-1; first compound 0.1 µM
  relative viability: 0.824
ChaGo-K-1; first compound 0.3162 µM
  relative viability: 0.827
ChaGo-K-1; first compound 1 µM
  relative viability: 0.693
SW 900; first compound 0.01 µM
  relative viability: 0.551
SW 900; first compound 0.03162 µM
  relative viability: 0.626
SW 900; first compound 0.1 µM
  relative viability: 0.44
SW 900; first compound 0.3162 µM
  relative viability: 0.412
SW 900; first compound 1 µM
  relative viability: 0.254
LCLC-103H; first compound 0.01 µM
  relative viability: 0.776
LCLC-103H; first compound 0.03162 µM
  relative viability: 0.805
LCLC-103H; first compound 0.1 µM
  relative viability: 0.775
LCLC-103H; first compound 0.3162 µM
  relative viability: 0.788
LCLC-103H; first compound 1 µM
  relative viability: 0.769
SK-LU-1; first compound 0.01 µM
  relative viability: 0.922
SK-LU-1; first compound 0.03162 µM
  relative viability: 0.795
SK-LU-1; first compound 0.1 µM
  relative viability: 0.782
SK-LU-1; first compound 0.3162 µM
  relative viability: 0.973
SK-LU-1; first compound 1 µM
  relative viability: 0.67
